Source: patent US8748170B2, “Polypeptides derived from cyclin B1 and uses thereof” (priority 2008, dated 2014)

Test system: CD4+T cells
Assay: CFSE dilution proliferation of CD4+ T cells in PBMC of heavy smokers
Format: cell-based, human
Details: PBMC from 5 heavy smokers negative for lung cancer by CT; peptide approximately 2 μg/ml; 6 days; one or more of the peptides
Text: The amino acid sequence of the whole CB1 protein was synthesized as a series of peptides (generally 12-15 amino acids in length) that overlap by 11 amino acids (each peptide is offset by 4 amino acids). This approach is used when HLA of the subjects being tested is unknown and when there is a potential for multiple reactive peptides restricted by a variety of HLA molecules. It is also useful when the blood collection volumes are too small for dendritic cell generation, and other antigen presenting cells in the peripheral blood are counted on to present peptides without the need for further antigen processing.
Peripheral blood was collected into vaccutainers containing heparin sulfate and processed to obtain peripheral blood mononuclear cells (PBMC) by density centrifugation. PBMC were washed in PBS and labeled with 5 μM CFSE (Invitrogen) in warmed 0.1% FBS in PBS for 10 minutes at 37° C. The CFSE was quenched with 3 volumes of ice cold complete RPMI and incubated for 5 minutes before washes with complete RPMI. PBMC were then resuspended in media containing anti-CD28 and anti-CD49d antibodies for additional costimualtion. Wells coated with anti-CD3 were used as positive controls. Peptides were added at approximately 2 μg/ml. No peptide was added to negative control wells. After 6 days, cells were stained for cell surface markers and tested for proliferation by CFSE dilution using flow cytometry. Peptides that induced proliferation above that seen in the wells receiving no peptides were considered to be stimulatory.

| Sequence | CD4+ T cell proliferation in response to peptide, above background (no peptide) |
| --- | --- |
| KFRLLQETMYMTVSI [Pep61, cyclin B1 amino acids 215-229] | show proliferation |
| LQETMYMTVSIIDRF [Pep62, cyclin B1 amino acids 219-233] | show proliferation |
| MYMTVSIIDRFM [Pep63, cyclin B1 amino acids 223-234] | show proliferation |
